Key:
[1] = target: Cholinesterase (Equus caballus, UniProt P81908); assay: Inhibition of equine BChE using BTCI as substrate preincubated for 30 mins followed by substrate addition measured after 30 mins by Ellman's method
[2] = target: T1, Acetylcholinesterase (Homo sapiens, UniProt P22303); assay: Inhibition of human AChE using ATCI as substrate preincubated for 30 mins followed by substrate addition measured after 30 mins by Ellman's method
[3] = Antioxidant activity assessed as inhibition of DPPH radical scavenging activity incubated for 30 mins by absorbance based analysis; format: functional
[4] = Antioxidant activity assessed as DPPH radical scavenging activity at 20 to 200 uM incubated for 30 mins by absorbance based analysis relative to control; format: functional; conditions: dose 20-200 µM
[5] = target: Cholinesterase (Equus caballus) (UniProt P81908); assay: Inhibition of equine BChE using BTCI as substrate preincubated for 30 mins followed by substrate addition measured after 30 mins by Ellman's method relative to control
Chain of Cholinesterase (Equus caballus) (P81908 whole entry): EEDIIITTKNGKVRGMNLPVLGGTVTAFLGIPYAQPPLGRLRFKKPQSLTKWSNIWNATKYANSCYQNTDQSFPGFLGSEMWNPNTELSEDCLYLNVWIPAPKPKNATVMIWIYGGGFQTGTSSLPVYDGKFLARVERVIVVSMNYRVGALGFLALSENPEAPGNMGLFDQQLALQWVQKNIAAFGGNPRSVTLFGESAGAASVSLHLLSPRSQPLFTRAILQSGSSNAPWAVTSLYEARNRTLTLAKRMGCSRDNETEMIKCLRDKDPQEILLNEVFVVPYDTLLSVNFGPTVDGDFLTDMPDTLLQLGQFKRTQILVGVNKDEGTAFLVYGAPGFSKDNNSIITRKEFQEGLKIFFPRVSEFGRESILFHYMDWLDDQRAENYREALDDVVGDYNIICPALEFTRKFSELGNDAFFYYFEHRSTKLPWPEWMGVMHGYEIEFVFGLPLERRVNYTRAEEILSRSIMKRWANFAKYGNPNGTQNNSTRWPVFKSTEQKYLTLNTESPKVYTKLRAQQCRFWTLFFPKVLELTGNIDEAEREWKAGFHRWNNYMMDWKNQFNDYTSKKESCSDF

[6] = target: T1, Acetylcholinesterase; assay: Inhibition of human AChE using ATCI as substrate preincubated for 30 mins followed by substrate addition measured after 30 mins by Ellman's method relative to control; set-up: concentration or dose not given beside the values; conditions: time 60.0 min

Chain of Cholinesterase (P81908 whole entry): as above
T1 sequence (P22303 whole entry): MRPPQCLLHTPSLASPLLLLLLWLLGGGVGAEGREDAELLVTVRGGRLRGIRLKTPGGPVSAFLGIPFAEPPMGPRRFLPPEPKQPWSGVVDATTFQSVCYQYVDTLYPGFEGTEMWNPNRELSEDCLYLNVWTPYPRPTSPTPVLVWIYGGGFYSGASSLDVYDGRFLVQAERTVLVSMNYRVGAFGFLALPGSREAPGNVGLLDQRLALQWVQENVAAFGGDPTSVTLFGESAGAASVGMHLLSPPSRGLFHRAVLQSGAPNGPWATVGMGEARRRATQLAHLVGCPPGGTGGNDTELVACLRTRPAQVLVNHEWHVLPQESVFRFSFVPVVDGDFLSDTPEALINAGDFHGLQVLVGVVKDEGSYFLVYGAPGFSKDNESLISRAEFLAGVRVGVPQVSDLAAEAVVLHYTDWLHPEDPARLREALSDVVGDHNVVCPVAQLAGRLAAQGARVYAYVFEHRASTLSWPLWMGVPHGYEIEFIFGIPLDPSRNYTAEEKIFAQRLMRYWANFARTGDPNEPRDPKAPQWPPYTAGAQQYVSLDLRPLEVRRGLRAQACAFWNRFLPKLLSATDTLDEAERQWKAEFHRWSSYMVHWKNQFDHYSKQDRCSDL

Compound | IC50 [1] | IC50 [2] | also measured
NC(=NO)c1cccc(NC(=O)Nc2ccccc2Cl)c1 | 15.4 µM |  | 
NC(=NO)c1cccc(NC(=O)Nc2cccc(Cl)c2)c1 | 18.7 µM | 17.4 µM | 
NC(=NO)c1cccc(NC(=O)Nc2ccccc2C(F)(F)F)c1 | 17.1 µM | 18.3 µM | 
Cc1ccccc1NC(=O)Nc1cccc(/C(N)=N/O)c1 | 15.4 µM | 17.4 µM | 
COc1cccc(NC(=O)Nc2cccc(/C(N)=N/O)c2)c1 | 12.8 µM | 12.9 µM | 
O=c1c(O)c(-c2ccc(O)c(O)c2)oc2cc(O)cc(O)c12 [QUERCETIN] |  |  | IC50 [3]: 3.23 µM; Activity [4]: 79.4%
N/C(=N\O)c1cccc(NC(=O)Nc2ccccc2F)c1 | 11.3 µM | 18.6 µM | 
N/C(=N\O)c1cccc(NC(=O)Nc2ccc(C(F)(F)F)cc2)c1 |  | 12.2 µM | inhibition [5]: 47%
NC(=NO)c1cccc(NC(=O)Nc2cccc([N+](=O)[O-])c2)c1 | 16.3 µM | 12.1 µM | 
COc1cccc(NC(=O)Nc2ccc(/C(N)=N/O)cc2)c1 | 18.2 µM | 9.15 µM | 
Cc1ccc(NC(=O)Nc2cccc(/C(N)=N/O)c2)cc1 | 17.9 µM |  | inhibition [6]: 39.9%
N/C(=N\O)c1cccc(NC(=O)Nc2cccc(C(F)(F)F)c2)c1 | 10.5 µM | 17 µM | 
Cc1cccc(NC(=O)Nc2cccc(/C(N)=N/O)c2)c1 | 10.6 µM |  | inhibition [6]: 42.5%
N/C(=N\O)c1cccc(NC(=O)Nc2ccccc2Cl)c1 |  |  | inhibition [6]: 49.2%
NC(=NO)c1cccc(NC(=O)Nc2ccc([N+](=O)[O-])cc2)c1 | 17.6 µM | 16.3 µM | 
N/C(=N\O)c1cccc(NC(=O)Nc2ccccc2)c1 | 17.5 µM |  | inhibition [6]: 47.9%
Cc1ccccc1NC(=O)Nc1ccc(/C(N)=N/O)cc1 | 16.9 µM | 8.57 µM | 
N/C(=N\O)c1cccc(NC(=O)Nc2ccc(O)cc2)c1 | 14.4 µM | 16.3 µM | 

Compound | IC50 [1] | IC50 [2] | also measured
N/C(=N\O)c1ccc(NC(=O)Nc2cccc(F)c2)cc1 | 8.08 µM | 3.04 µM | 
N/C(=N\O)c1cccc(NC(=O)Nc2cccc(Br)c2)c1 | 8.63 µM | 14.5 µM | 
NC(=NO)c1cccc(NC(=O)Nc2ccc(Br)cc2)c1 | 14.6 µM | 16.8 µM | 
N/C(=N\O)c1ccc(NC(=O)Nc2ccc3ncccc3c2)cc1 | 13.2 µM | 6.94 µM | 
N/C(=N\O)c1cccc(NC(=O)NCCc2c[nH]c3ccccc23)c1 | 3.91 µM | 1.54 µM | 
N/C(=N\O)c1cccc(NC(=O)Nc2ccc3ncccc3c2)c1 |  |  | IC50 [3]: 18.4 µM; Activity [4]: 42.9%
N/C(=N\O)c1ccc(NC(=O)Nc2ccc3[nH]ccc3c2)cc1 | 12.7 µM | 7.47 µM | 
N/C(=N\O)c1ccc(NC(=O)Nc2ccc(Cl)cc2)cc1 | 14.6 µM | 7.65 µM | 
N/C(=N\O)c1cccc(NC(=O)Nc2ccc(Cl)cc2)c1 | 16.5 µM | 14.1 µM | 
N/C(=N\O)c1cccc(NC(=O)Nc2ccc3[nH]ccc3c2)c1 | 15.9 µM | 6.24 µM | IC50 [3]: 22.9 µM; Activity [4]: 34.2%
NC(=NO)c1cccc(NC(=O)Nc2ccc(F)cc2)c1 | 17.7 µM | 7.51 µM | 
NC(=NO)c1cccc(NC(=O)Nc2ccc3ncccc3c2)c1 | 15.4 µM | 5.68 µM | 
NC(=NO)c1ccc(NC(=O)Nc2cccc(Br)c2)cc1 | 7.62 µM | 6.41 µM | 
N/C(=N\O)c1cccc(NC(=O)NCCc2c[nH]c3ccc(Cl)cc23)c1 | 3.1 µM | 1.16 µM | 
NC(=NO)c1cccc(NC(=O)Nc2cccc(O)c2)c1 | 15.5 µM | 14.5 µM | 
N/C(=N\O)c1cccc(NC(=O)Nc2ccccc2Br)c1 |  |  | inhibition [6]: 47.7%; inhibition [5]: 49.2%
COc1ccc(NC(=O)Nc2cccc(/C(N)=N/O)c2)cc1 | 17.9 µM | 16.3 µM | 
COc1ccccc1NC(=O)Nc1cccc(/C(N)=N/O)c1 | 15.2 µM |  | inhibition [6]: 49%

Reference: ChEMBL document CHEMBL6092212, “Discovery of novel substituted (Z)-N'-hydroxy-3-(3-phenylureido)benzimidamide derivatives as multifunctional molecules targeting pathological hallmarks of Alzheimer's disease” (Eur J Med Chem, 2024)
